Source: PMC6120877, “Intriguing role of water in protein-ligand binding studied by neutron crystallography on trypsin complexes” (Nature Communications, 2018)

Key:
bovine trypsin = target: T1, bovine trypsin (Bos taurus, UniProt P00760); assay: Kinetic fluorescence enzyme inhibition assay, trypsin; assay type: biochemical; settings: for Ki: fluorescence assay, D-Phe-Pro derivatives
T1 construct: purchased Worthington Biochemical Corporation LS003707
T1 sequence (P00760 24-246): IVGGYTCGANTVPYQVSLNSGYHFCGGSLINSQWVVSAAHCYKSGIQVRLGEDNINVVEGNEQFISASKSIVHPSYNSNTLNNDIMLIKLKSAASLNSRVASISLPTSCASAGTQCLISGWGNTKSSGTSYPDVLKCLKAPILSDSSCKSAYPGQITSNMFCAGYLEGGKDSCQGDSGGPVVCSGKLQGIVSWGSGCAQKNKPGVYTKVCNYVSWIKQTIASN
Description: Following the same approach as used in an earlier study, kinetic data were obtained in black 96-well plates using a Fluoroskan Ascent fluorometer (Thermo Fisher Scientific, Vantaa/Finland; λex = 355 nm, λem = 460 nm). The assay was performed at room temperature in a buffer composed of 43 mM Tris pH 7.8, 132 mM NaCl and 0.0086 % (w/v) PEG 8000. The final trypsin concentration was 65 pM. […] The D-Phe-Pro analogs were dissolved in DMSO and further diluted in buffer to yield a final DMSO concentration in the assay well below 1% (v/v). Mes-d-Arg-Gly-Arg-AMC (Mes = mesyl; AMC = […]) available from a previous study was used as the substrate. […] The uninhibited trypsin-catalyzed reaction was investigated in parallel at the three substrate concentrations 6.3, 12.5, and 25 µM. […] For this purpose, a non-linear fit to the Michaelis-Menten equation modified for reversible competitive inhibitors was used.

bovine β-trypsin [1] = target: T2, bovine β-trypsin (Bos taurus, UniProt P00760); assay: Direct ITC titration, trypsin; assay type: binding; settings: for number of protons transferred from the buffer onto trypsin upon complex formation (slope of interpolation function): ∆H° vs. buffer ionization enthalpy, three buffers
T2 construct: dialyzing a solution of bovine β-trypsin (Sigma Aldrich, product number T8003); purchased Sigma Aldrich T8003
T2 sequence (P00760 24-246): T1 sequence (P00760 24-246)
Description: To determine dissociation constants for trypsin:inhibitor complexes, two different isothermal titration calorimetry (ITC) titration protocols were used. […] Protein samples were prepared by dialyzing a solution of bovine β-trypsin (Sigma Aldrich, product number T8003) against a buffer composed of 80 mM NaCl, 10 mM CaCl2, 0.1 % (w/v) PEG 8000 and 100 mM HEPES, Tricine or Tris at a pH of 7.6 and a temperature of 4 °C while ligands were dissolved in buffer. […] Titrations were performed in three different buffer systems to enable the correction for any proton transfer occurring between buffer and protein upon complex formation. For this purpose, the obtained ∆H° values were plotted against the ionization enthalpy of the used buffer yielding a buffer-corrected enthalpy as the intercept (for more details see footnote b in Supplementary Tables 2 and 3). […] Applying the same protocol and data analysis scheme as used in an earlier study, ITC titrations were performed on an ITC200 device (GE Healthcare) at 25 °C with a reference power of 5 µcal s^−1. The ITC protocol consisted of an initial 0.3 µl volume injection and of 20–25 injections with a volume between 1.5 and 1.8 µl separated by a 220 s time interval. For data analysis, the method described by Turnbull et al. was applied.

bovine β-trypsin [2] = target: T2, bovine β-trypsin; assay: Displacement ITC titration, trypsin (displacement ligand compound 2); assay type: binding; settings: HEPES
Description: Sample preparations, measurements and data analyses were performed using the same approach as for our earlier study, which is described in the following. […] ITC data were collected using an ITC200 device (GE Healthcare) at 25 °C with a reference power of 5 µcal s^−1. An initial 0.3 µl volume injection was followed by 19 injections with a volume of 1.9 µl.

human thrombin = target: T3, human thrombin (Homo sapiens, UniProt P00734); assay: Kinetic fluorescence enzyme inhibition assay, thrombin; assay type: biochemical; settings: D-Phe-Pro derivatives
T3 construct: The analogous assay was applied to human thrombin, which was kindly provided by CSL Behring; purchased CSL Behring

[3] = buffer-corrected (average over three buffers), 3% (v/v) DMSO
[4] = buffer-corrected (difference between ∆G° and ∆H°), 3% (v/v) DMSO
[5] = buffer-corrected (intercept at ionization enthalpy 0), 3% (v/v) DMSO
[6] = direct titration, HEPES, 3% (v/v) DMSO
[7] = direct titration, Tricine, 3% (v/v) DMSO
[8] = direct titration, Tris, 3% (v/v) DMSO

SMILES	Ki (bovine trypsin)	Kd (bovine β-trypsin [1]; [3])	∆G° (bovine β-trypsin [1]; [3])	–T∆S° (bovine β-trypsin [1]; [4])	∆H° (bovine β-trypsin [1]; [5])	Kd (bovine β-trypsin [1]; [6])	–T∆S° (bovine β-trypsin [1]; [6])	∆G° (bovine β-trypsin [1]; [6])	∆H° (bovine β-trypsin [1]; [6])	Kd (bovine β-trypsin [1]; [7])	–T∆S° (bovine β-trypsin [1]; [7])	∆G° (bovine β-trypsin [1]; [7])	∆H° (bovine β-trypsin [1]; [7])	Kd (bovine β-trypsin [1]; [8])	–T∆S° (bovine β-trypsin [1]; [8])	∆G° (bovine β-trypsin [1]; [8])	∆H° (bovine β-trypsin [1]; [8])	number of protons transferred from the buffer onto trypsin upon complex formation (slope of interpolation function) (bovine β-trypsin [1]; 3% (v/v) DMSO)	other results
N=C(N)c1ccccc1 [Benzamidine, benzamidine]	–	–	–	–	–	–	–	–	–	–	–	–	–	–	–	–	–	–	stronger inhibition of trypsin than N-amidinopiperidine (bovine trypsin; benzamidine vs. N-amidinopiperidine): about 10 fold; –T∆S° (bovine β-trypsin [1]; direct titration, HEPES): -3.59 ± 0.072 kcal/mol; ∆G° (bovine β-trypsin [1]; direct titration, HEPES): -6.38 ± 0.072 kcal/mol; ∆H° (bovine β-trypsin [1]; direct titration, HEPES): -2.8 ± 0.024 kcal/mol; –T∆S° (bovine β-trypsin [1]; direct titration, Tricine): -2.53 ± 0.14 kcal/mol; ∆G° (bovine β-trypsin [1]; direct titration, Tricine): -6.33 ± 0.0096 kcal/mol; ∆H° (bovine β-trypsin [1]; direct titration, Tricine): -3.8 ± 0.14 kcal/mol; –T∆S° (bovine β-trypsin [1]; direct titration, Tris): -1.58 ± 0.096 kcal/mol; ∆G° (bovine β-trypsin [1]; direct titration, Tris): -6.33 ± 0.0072 kcal/mol; ∆H° (bovine β-trypsin [1]; direct titration, Tris): -4.76 ± 0.096 kcal/mol; ∆G° (bovine β-trypsin [1]; direct titration, buffer-corrected (average over three buffers)): -6.36 kcal/mol; –T∆S° (bovine β-trypsin [1]; direct titration, buffer-corrected (difference between ∆G° and ∆H°)): -5.02 kcal/mol; ∆H° (bovine β-trypsin [1]; direct titration, buffer-corrected (intercept at ionization enthalpy 0)): -1.34 kcal/mol; number of protons transferred from the buffer onto trypsin upon complex formation (slope of interpolation function) (bovine β-trypsin [1]): -0.31; –T∆S° (bovine β-trypsin [2]): -2.44 ± 0.22 kcal/mol; ∆G° (bovine β-trypsin [2]): -6.31 ± 0.14 kcal/mol; ∆H° (bovine β-trypsin [2]): -3.85 ± 0.17 kcal/mol
N=C(N)N1CCC(CNC(=O)[C@@H]2CCCN2C(=O)[C@H](N)Cc2ccccc2)CC1.O=C(O)C(F)(F)F.O=C(O)C(F)(F)F [Compound 1]	1960 ± 264 nM	3600 nM	-7.43 kcal/mol	-2.22 kcal/mol	-5.21 kcal/mol	3700 ± 200 nM	-2.77 ± 0.072 kcal/mol	-7.41 ± 0.048 kcal/mol	-4.64 ± 0.072 kcal/mol	3300 ± 300 nM	-3.15 ± 0.12 kcal/mol	-7.48 ± 0.048 kcal/mol	-4.33 ± 0.12 kcal/mol	3700 ± 600 nM	-3.51 ± 0.17 kcal/mol	-7.41 ± 0.096 kcal/mol	-3.9 ± 0.14 kcal/mol	0.12	Ki (human thrombin): 4.51 ± 0.25 nM
N=C(N)c1ccc(CNC(=O)[C@@H]2CCCN2C(=O)[C@H](N)Cc2ccccc2)cc1 [Compound 2]	15.2 ± 0.2 nM	34 nM	-10.2 kcal/mol	-1.05 kcal/mol	-9.13 kcal/mol	38 ± 7 nM	-1.65 ± 0.19 kcal/mol	-10.1 ± 0.096 kcal/mol	-8.48 ± 0.17 kcal/mol	34 ± 3 nM	-2.63 ± 0.096 kcal/mol	-10.2 ± 0.048 kcal/mol	-7.55 ± 0.096 kcal/mol	31 ± 5 nM	-2.87 ± 0.14 kcal/mol	-10.2 ± 0.096 kcal/mol	-7.39 ± 0.096 kcal/mol	0.17	–
